What was measured:
[1] = In vitro free radical inhibition test (DPPH method); conditions: 8 μL of 20 mmol/L compound in 1 mL DPPH 0.059 mg/mL ethanol, 60 min dark, 517 nm; for inhibition rate %: DPPH; for Relative inhibition ability on free radicals: inhibition rate of AGI1067 on DPPH defined as 100
Source text: 1. In Vitro Free Radical Inhibition Test (DPPH Method)
The single electron of DPPH radical has a strong absorption at […], and its alcohol solution is purple. In the presence of a free radical scavenger, the absorption of DPPH radical is weakened or disappeared for the reason that the free radical scavenger is paired with the single electron of DPPH radical, and the degree of discoloration is quantitatively related to the number of electrons DPPH radical receives. Therefore, a spectrophotometer can be used to quickly and quantitatively analyze the free radical scavenging rate of the compound.
1) 1 mL solution of DPPH in absolute ethanol (concentration: 0.059 mg/mL) was taken; 2) 8 μL of the compound to be tested (20 mmol/L) were added; 3) after mixing well, the resultant was kept in dark at room temperature for 60 minutes, 4) the absorbance of the sample at 517 nm was measured.

[2] = test system: Malondialdehyde (MDA) in serum; experiment: In vivo anti-lipid oxidation experiment (serum MDA, TBA method); set-up: inhibition rate %: concentration or dose not given beside the values; conditions: MAD lipid peroxidation in vivo; for inhibition rate %: relative to solvent DMSO and Chow averages; for avarage value of OD: serum, TBA method, 532 nm
Source text: Experimental principle: Malondialdehyde (MDA) in liposome degradation products could condense with thiobarbituric acid (TBA) to form a red product which has a maximum absorption peak at 532 nm. The spectrophotometer was used to measure the relative absorption value to calculate the antioxidant value.
Reagents: Malondialdehyde (MDA) test kit (article number: A003-1, […], Nanjing Jiancheng), glacial acetic acid of analytically pure grade.
Reagent preparations: 1) Reagent I: Reagent 1 in the kit was taken out from the refrigerator and subjected to natural warming until a transparent liquid is obtained; 2) Reagent II: 170 mL of double-distilled water was added to each bottle and mixed; 3) Reagent III: A dry powder in the kit was dissolved in 60 mL of double-distilled water at 90 to 100° C. After the dry powder was dissolved totally, 30 mL of glacial acetic acid was added and kept in dark place; 4) Standard: 10 nmol/mL tetraethoxypropane.
Experimental procedures: 1) Blank tube: To 2 mL centrifuge tube were added anhydrous ethanol (70 μl), Reagent I (70 μl), Reagent II (0.8 mL) and Reagent III (0.8 mL) in sequence; 2) Standard tube: To 2 mL centrifuge tube were added standard (70 μl), Reagent I (70 μl), Reagent 11 (0.8 mL) and Reagent III (0.8 mL) in sequence; 3) Measuring tube: To 2 mL centrifuge tube were added the serum to be tested and physiological saline (the total volume of serum and physiological saline is 70 μl), Reagent I (70 μl), Reagent II (0.8 mL) and Reagent III (0.8 mL) in sequence; 4) Control tubes: all samples are set up with corresponding control tubes. To a 2 mL centrifuge tube were added the serum to be tested and physiological saline (the total volume of serum and physiological saline is 70 μl), Reagent I (70 μl), Reagent II (0.8 mL) and 50% glacial acetic acid (0.8 mL) in sequence.
After the above reagents were added, the mixture was mixed homogenously. Then the mixture was left in the water bath at 95° C. for 60 minutes. The sample was centrifuged at 4000 rpm for 10 minutes. The supernatant was taken for the measurement of the OD value.
Experimental data processing: the MDA content in serum was calculated as follows: MDA=(OD valuemeasured−OD valuecontrol)/OD valuestandard*concentration of the standard Inhibition rate %=100−(ODsample-average value−average value of Chow)/(average value of the solvent DMSO−average value of Chow)*100

[3] = test system: golden hamsters (60% high-fat food, STZ induced); experiment: Golden hamster disease model, animal model induction group (16-week-old group): blood biochemical indexes and body weight; type: in vivo
Experimental: Animals and feed: 1) 8-week-old male golden hamsters with a body weight range of 100±5 g were selected; 2) 60% high-fat food; 3) 30% high-fat food; 4) general feed: NRC standard feed, containing 5% fat, total calories 4200 kcal/kg.
Animal model induction group (16-week-old group): 1) fed with 60% high-fat food for 2 weeks under standard environment; 2) STZ intraperitoneal injection twice every two days, 50 mg/kg each time; 3) After STZ induction, the golden hamsters were continuous fed for 1 week; 4) Blood was taken from the ocular venous plexus, and the initial body weight, blood glucose, total cholesterol, LDL-c, HDL-c and triglyceride were measured, and the golden hamsters were grouped in parallel according to animal biochemical indicators, 8 in each group; 5) Gavage of compounds: 0.1 mL of solution of compound (concentration: 6.8 mg/mL, DMSO solution) and 0.25 mL of whole milk were mixed evenly and administrated by gavage once a day for 2 weeks; 6) Blank control: 0.1 mL of DMSO and 0.25 mL of whole milk were mixed evenly and administrated by gavage once a day for 2 weeks; 7) Observation time: 14 days later, blood was taken from the ocular venous plexus, and the body weight, blood glucose, total cholesterol, LDL-c, HDL-c and triglyceride were measured.
Instruments: Shimadzu UV-1750 spectrophotometer, clinical determination kit (Changchun Huili Biotechnology Co., Ltd.)
Determination of blood glucose: glucose oxidase method, kit
Determination of total cholesterol (COD-PAP method), kit
Determination of low density lipoprotein cholesterol (direct method), kit
Determination of triglyceride (GP-PAP method)
Determination of high density lipoprotein (direct method), kit

[4] = after gavage once a day for 2 weeks
[5] = change rate, gavage once a day for 2 weeks

SMILES	inhibition rate % [1]	Relative inhibition ability on free radicals [1]	inhibition rate % [2]	avarage value of OD [2]	change rate of blood glucose % ([3]; 0.1 mL of 6.8 mg/mL DMSO solution + 0.25 mL whole milk by gavage once a day for 2 weeks)	change rate of body weight after deduction of DMSO blank % ([3]; DMSO blank deducted)	average body weight after administration/g [3, 4]	change of body weight/g [3, 4]	change rate of body weight % [3, 4]	HDL % [3, 5]	LDL % [3, 5]	total cholesterol % [3, 5]	triglyceride % [3, 5]
CC(C)(Sc1cc(C(C)(C)C)c(O)c(C(C)(C)C)c1)Sc1cc(C(C)(C)C)c(O)c(C(C)(C)CCO)c1 [Compound 8, 2,6-di-tert-butyl-4-((2-((3-(tert-butyl)-4-hydroxy-5-(4-hydroxy-2-methylbutan-2-yl)phenyl)thio)propan-2-yl)thio)phenol]	37.7%	86.5	59.8%	6.98	48.6%	−6.1%	149.0 g	5.3 g	3.7%	60.2%	11.1%	−7.6%	59.1%
CC(C)(Sc1cc(C(C)(C)C)c(O)c(C(C)(C)C)c1)Sc1cc(C(C)(C)C)c(O)c(C(C)(C)CCOCCN2CCOCC2)c1 [Compound 18, 2,6-di-tert-butyl-4-((2-((3-(tert-butyl)-4-hydroxy-5-(2-methyl-4-(2-morpholinoethoxy)butan-2-yl)phenyl)thio)propan-2-yl)thio)phenol]	23.5%	53.8	53.8%	7.21									
CC(C)(Sc1cc(C(C)(C)C)c(O)c(C(C)(C)C)c1)Sc1cc(C(C)(C)C)c(O)c(C(C)(C)CCOC(=O)CN)c1 [Compound 19, 3-(3-(tert-butyl)-5-((2-((3,5-di-tert-butyl-4-hydroxyphenyl)thio)propan-2-yl)thio)-2-hydroxyphenyl)-3-methylbutyl glycinate]	32.1%	42.6	27.9%	8.21									
CC(N)C(=O)OCCC(C)(C)c1cc(SC(C)(C)Sc2cc(C(C)(C)C)c(O)c(C(C)(C)C)c2)cc(C(C)(C)C)c1O (stereo not shown) [Compound 20, 3-(3-(tert-butyl)-5-((2-((3,5-di-tert-butyl-4-hydroxyphenyl)thio)propan-2-yl)thio)-2-hydroxyphenyl)-3-methylbutyl alaninate]	26.3%	38.9	30.7%	8.10									
COC(=O)CN(CCC(C)(C)c1cc(SC(C)(C)Sc2cc(C(C)(C)C)c(O)c(C(C)(C)C)c2)cc(C(C)(C)C)c1O)CC(=O)OC [Compound 22, dimethyl 2,2′-((3-(3-(tert-butyl)-5-((2-((3,5-di-tert-butyl-4-hydroxyphenyl)thio)propan-2-yl)thio)-2-hydroxyphenyl)-3-methylbutyl)azanediyl)diacetate]	42.6%	97.6	36.2%	7.89									
CC(C)(Sc1cc(C(C)(C)C)c(O)c(C(C)(C)C)c1)Sc1cc(C(C)(C)C)c(O)c(C(C)(C)CCn2cncn2)c1 [Compound 24, 2,6-di-tert-butyl-4-((2-((3-(tert-butyl)-4-hydroxy-5-(2-methyl-4-(1H-1,2,4-triazol-1-yl)butan-2-yl)phenyl)thio)propan-2-yl)thio)phenol]	19.2%	34.8	53.3%	7.23									
CC(C)(Sc1cc(C(C)(C)C)c(O)c(C(C)(C)C)c1)Sc1cc(C(C)(C)C)c(O)c(C(C)(C)CCNS(=O)(=O)C2CC2)c1 [Compound 25, N-(3-(3-(tert-butyl)-5-((2-((3,5-di-tert-butyl-4-hydroxyphenyl)thio)propan-2-yl)thio)-2-hydroxyphenyl)-3-methylbutyl)cyclopropanesulfonamide]	28.6%	29.3	48.1%	7.43									
CC(C)(Sc1cc(C(C)(C)C)c(O)c(C(C)(C)C)c1)Sc1cc(C(C)(C)C)c(O)c(C(C)(C)CCOC(=O)CCC(=O)NCCS(=O)(=O)O)c1 [Compound 27, 2-(4-(3-(3-(tert-butyl)-5-((2-((3,5-di-tert-butyl-4-hydroxyphenyl)thio)propan-2-yl)thio)-2-hydroxyphenyl)-3-methylbutoxy)-4-oxobutanamido)ethane-1-sulfonic acid]	18.1%	41.5	30.2%	8.12									
CC(C)(C)C1=CC(=C2C=C(C(C)(C)C)C(=O)C(C(C)(C)C)=C2)C=C(C(C)(C)C)C1=O [Compound 29, 3,3′,5,5′-tetra-tert-butyl-[1,1′-bi(cyclohexylidene)]-2,2′,5,5′-tetraene-4,4′-dione, reference compound]	8.8%	20.1	7.9%	8.98									
CC(C)(Sc1cc(C(C)(C)C)c(O)c(C(C)(C)C)c1)Sc1cc(C(C)(C)C)c(OC(=O)CCC(=O)O)c(C(C)(C)C)c1 [Compound 31, 4-(2,6-di-tert-butyl-4-((2-((3,5-di-tert-butyl-4-hydroxyphenyl)thio)propan-2-yl)thio)phenoxy)-4-oxobutanoic acid, reference compound]	43.6%	100.0	49.1%	7.39									
